Experimental data as given in patent US20240343704A1, “HALO-SUBSTITUTED AMINO PYRIDINE COMPOUNDS AS INHIBITORS OF THE HAEMATOPOIETIC PROGENITOR KINASE 1 (HPK1)” (priority 2021, published 2024).

Assays:
[1] = target: T1, Recombinant (1-346) HPK1 (h) (Homo sapiens, UniProt Q92918); assay: HPK1 Human STE Kinase Enzymatic Radiometric Assay; assay type: biochemical; conditions: read-out: HPK1 IC50 nM Range*
T1 construct: Recombinant (1-346) HPK1 (h) is incubated with 8 mM MOPS pH 7.0
T1 sequence (Q92918 1-346): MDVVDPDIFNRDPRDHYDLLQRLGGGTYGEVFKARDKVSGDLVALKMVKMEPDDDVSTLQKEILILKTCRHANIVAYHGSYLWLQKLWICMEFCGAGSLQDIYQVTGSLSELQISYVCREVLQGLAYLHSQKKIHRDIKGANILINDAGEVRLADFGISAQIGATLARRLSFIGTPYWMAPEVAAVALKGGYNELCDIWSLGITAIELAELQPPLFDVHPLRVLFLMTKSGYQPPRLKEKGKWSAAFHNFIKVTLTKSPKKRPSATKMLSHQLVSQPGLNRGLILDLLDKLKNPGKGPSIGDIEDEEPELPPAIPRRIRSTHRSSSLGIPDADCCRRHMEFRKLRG
Protocol: A stock solution of 10 mM of test compound is prepared in DMSO. The compound plate was prepared by 3-fold and 9-point serial dilutions. […] The reaction is initiated by The addition of the Mg/ATP mix. After incubation for 40 minutes at RT, the reaction is stopped by the addition of phosphoric acid to a concentration of 0.5%.

Lck (h) = Lck (h) (Homo sapiens, UniProt P06239); assay: Lck Human  Kinase Enzymatic Radiometric Assay; assay type: biochemical; conditions: read-out: Lck IC50 nM Range*
Chain of Lck (h) (P06239 whole entry): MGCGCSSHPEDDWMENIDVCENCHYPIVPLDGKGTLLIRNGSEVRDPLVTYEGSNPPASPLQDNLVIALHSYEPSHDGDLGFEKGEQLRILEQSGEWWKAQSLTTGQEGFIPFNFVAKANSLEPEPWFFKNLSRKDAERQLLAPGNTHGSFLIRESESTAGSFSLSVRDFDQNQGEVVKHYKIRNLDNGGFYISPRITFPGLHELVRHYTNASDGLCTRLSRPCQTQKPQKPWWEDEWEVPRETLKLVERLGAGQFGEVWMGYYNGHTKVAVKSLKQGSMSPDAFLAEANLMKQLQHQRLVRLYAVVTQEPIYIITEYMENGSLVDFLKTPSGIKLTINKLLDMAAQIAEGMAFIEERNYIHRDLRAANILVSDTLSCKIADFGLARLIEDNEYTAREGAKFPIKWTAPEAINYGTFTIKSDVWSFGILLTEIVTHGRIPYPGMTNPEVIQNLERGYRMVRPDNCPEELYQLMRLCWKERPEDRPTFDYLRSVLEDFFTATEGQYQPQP
How it was run: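 Substrate 33P-incorporation measured by scintillation counting after spotting on P30 filtermat and phosphoric acid washes. Human Lck reacted 40 min at RT in 50 mM Tris pH 7.5 with 10 mM MgAcetate, [gamma-33P]-ATP, 250 uM Cdc2 peptide, 0.1 mM EGTA and 0.1 mM Na3VO4.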

Row | Structure (SMILES) | IC50 [1] [nM] | IC50 (Lck (h)) [nM]
1 | CCN1CCN(c2ccc(-c3cc(-c4ccc5c(c4)CCNC5=O)c(N)nc3F)cc2)CC1 [I-41, 6-(2-amino-5-(4-(4-ethylpiperazin-1-yl)phenyl)-6-fluoropyridin-3-yl)-3,4-dihydroisoquinolin-1(2H)-one] | 0.1 to 10 | > 1000
2 | COCCN1CCC(c2ccc(-c3cc(-c4ccc5c(c4)CCNC5=O)c(N)nc3F)cc2)CC1 [I-107, 6-(2-amino-6-fluoro-5-(4-(1-(2-methoxyethyl)piperidin-4-yl)phenyl)pyridin-3-yl)-3,4-dihydroisoquinolin-1(2H)-one] | 0.1 to 10 | > 1000
3 | CC(C)(C)OC(=O)N1CC=C(c2ccc(-c3cc(-c4ccc5c(c4)CCNC5=O)c(N)nc3F)cc2)CC1 [I-56, tert-butyl4-(4-(6-amino-2-fluoro-5-(1-oxo-1,2,3,4-tetrahydroisoquinolin-6-yl)pyridin-3-yl)phenyl)-3,6-dihydropyridine-1(2H)-carboxylate] | 11 to 100 | > 1000
4 | Nc1nc(F)c(-c2ccc(OC3CCNCC3)cc2)cc1-c1ccc2c(c1)CCNC2=O [I-22, 6-(2-amino-6-fluoro-5-(4-(piperidin-4-yloxy)phenyl)pyridin-3-yl)-3,4-dihydroisoquinolin-1(2H)-one] | 0.1 to 10 | > 1000
5 | CN1C[C@H]2C[C@@]2(c2ccc(-c3cc(-c4ccc5c(c4)CCNC5=O)c(N)nc3F)cc2)C1 [I-14, 6-(2-amino-6-fluoro-5-(4-((1R,5S)-3-methyl-3-azabicyclo[3.1.0]hexan-1-yl)phenyl)pyridin-3-yl)-3,4-dihydroisoquinolin-1(2H)-one] | 0.1 to 10 | > 1000
6 | CC(C)[C@@H]1CN(c2ccc(-c3cc(-c4ccc5c(c4)CCNC5=O)c(N)nc3F)cc2)CCO1 [I-9, (R)-6-(2-amino-6-fluoro-5-(4-(2-isopropylmorpholino)phenyl)pyridin-3-yl)-3,4-dihydroisoquinolin-1(2H)-one] | 0.1 to 10 | > 1000
7 | CN1C[C@H]2C[C@@]2(c2ccc(-c3cc(-c4ccc5c(c4)C(C)(C)NC5=O)c(N)nc3F)cc2)C1 [I-36, 5-(2-amino-6-fluoro-5-(4-((1R,5S)-3-methyl-3-azabicyclo[3.1.0]hexan-1-yl)phenyl)pyridin-3-yl)-3,3-dimethylisoindolin-1-one] | 0.1 to 10 | > 1000
8 | Nc1nc(F)c(-c2ccc(N3C[C@H]4COC[C@H]4C3)cc2)cc1-c1ccc2c(c1)CCNC2=O [I-91, 6-(2-amino-6-fluoro-5-(4-((3aR,6aS)-tetrahydro-1H-furo[3,4-c]pyrrol-5(3H)-yl)phenyl)pyridin-3-yl)-3,4-dihydroisoquinolin-1(2H)-one] | 11 to 100 | > 1000
9 | C[C@@H]1COCCN1c1ccc(-c2cc(-c3ccc4c(c3)CCNC4=O)c(N)nc2F)c(F)c1 [I-108, (R)-6-(2-amino-6-fluoro-5-(2-fluoro-4-(3-methylmorpholino)phenyl)pyridin-3-yl)-3,4-dihydroisoquinolin-1(2H)-one] | 11 to 100 | > 1000
10 | CCN1CCN(c2ccc(-c3cc(-c4ccc5c(c4)CCCNC5=O)c(N)nc3F)cc2)CC1 [I-67, 7-(2-amino-5-(4-(4-ethylpiperazin-1-yl)phenyl)-6-fluoropyridin-3-yl)-2,3,4,5-tetrahydro-1H-benzo[c]azepin-1-one] | 11 to 100 | > 1000
11 | CN1CCC(n2cc(-c3cc(-c4cc5c(cc4F)C(=O)NCC5)c(N)nc3F)cn2)CC1 [I-129, 6-(2-amino-6-fluoro-5-(1-(1-methylpiperidin-4-yl)-1H-pyrazol-4-yl)pyridin-3-yl)-7-fluoro-3,4-dihydroisoquinolin-1(2H)-one] | 0.1 to 10 | 101 to 1000

Other lines, results leading:

Row | IC50 [1] [nM] | IC50 (Lck (h)) [nM] | Structure (SMILES)
12 | 0.1 to 10 | 101 to 1000 | C[C@@H](C1CC1)N1CCN(c2ccc(-c3cc(-c4cc(F)c5c(=O)[nH]ccc5c4)c(N)nc3F)cc2)CC1 [I-393, (S)-6-(2-amino-5-(4-(4-(1-cyclopropylethyl)piperazin-1-yl)phenyl)-6-fluoropyridin-3-yl)-8-fluoroisoquinolin-1(2H)-one]
13 | 0.1 to 10 | > 1000 | CC(C)N1CCC(Oc2ccc(-c3cc(-c4ccc5c(c4)CCNC5=O)c(N)nc3F)cc2)CC1 [I-267, 6-(2-amino-6-fluoro-5-(4-((1-isopropylpiperidin-4-yl)oxy)phenyl)pyridin-3-yl)-3,4-dihydroisoquinolin-1(2H)-one]
14 | 0.1 to 10 | > 1000 | CC(C)N1CCOCC1c1ccc(-c2cc(-c3ccc4c(c3)CCNC4=O)c(N)nc2F)cc1 (stereo not drawn) [I-132, 6-(2-amino-6-fluoro-5-(4-(4-isopropylmorpholin-3-yl)phenyl)pyridin-3-yl)-3,4-dihydroisoquinolin-1(2H)-one]
15 | 0.1 to 10 | > 1000 | CC(=O)N1CCC2(CCc3cc(-c4cc(-c5ccc6c(c5)CCNC6=O)c(N)nc4F)ccc3O2)CC1 [I-193, 6-(5-(1′-acetylspiro[chromane-2,4′-piperidin]-6-yl)-2-amino-6-fluoropyridin-3-yl)-3,4-dihydroisoquinolin-1(2H)-one]
16 | 11 to 100 | > 1000 | CN1CCC(c2ccc(-c3cc(-c4ccc5c(c4)CCNC5=O)c(N)nc3Cl)cc2)CC1 [I-231, 6-(2-amino-6-chloro-5-(4-(1-methylpiperidin-4-yl)phenyl)pyridin-3-yl)-3,4-dihydroisoquinolin-1(2H)-one]
17 | 0.1 to 10 | > 1000 | CC(C)N1CCN(c2ccc(-c3cc(-c4cnc5c(=O)[nH]ccc5c4)c(N)nc3F)cc2)CC1 [I-402, 3-(2-amino-6-fluoro-5-(4-(4-isopropylpiperazin-1-yl)phenyl)pyridin-3-yl)-1,7-naphthyridin-8(7H)-one]
18 | 0.1 to 10 | > 1000 | CC(C)N1CCN(c2ccc(-c3cc(-c4cc5c(cc4F)C(=O)NCC5)c(N)nc3F)cn2)CC1 [I-226, 6-(6-amino-2-fluoro-6′-(4-isopropylpiperazin-1-yl)-[3,3′-bipyridin]-5-yl)-7-fluoro-3,4-dihydroisoquinolin-1(2H)-one]
19 | 0.1 to 10 | > 1000 | Cc1cc(-c2cc(-c3ccc4c(c3)CCNC4=O)c(N)nc2F)cc2c1CCN(CCCC(F)F)C2 [I-446, 6-(2-amino-5-(2-(4,4-difluorobutyl)-5-methyl-1,2,3,4-tetrahydroisoquinolin-7-yl)-6-fluoropyridin-3-yl)-3,4-dihydroisoquinolin-1(2H)-one]
20 | 0.1 to 10 | > 1000 | CC(C)[C@@H]1CN(c2ccc(-c3cc(-c4cc(F)c5c(c4)CCNC5=O)c(N)nc3F)cc2)CCO1 [I-351, (R)-6-(2-amino-6-fluoro-5-(4-(2-isopropylmorpholino)phenyl)pyridin-3-yl)-8-fluoro-3,4-dihydroisoquinolin-1(2H)-one]
21 | 0.1 to 10 | > 1000 | CC(C)N1CCC(c2ccc(-c3cc(-c4cc5c(cc4F)C(=O)NCC5)c(N)nc3F)cc2)CC1 [I-244, 6-(2-amino-6-fluoro-5-(4-(1-isopropylpiperidin-4-yl)phenyl)pyridin-3-yl)-7-fluoro-3,4-dihydroisoquinolin-1(2H)-one]
22 | 0.1 to 10 | > 1000 | Nc1nc(F)c(-c2ccc(N3CCN(CC4CC4)CC3)cc2)cc1-c1cc(F)c2c(=O)[nH]ccc2c1 [I-375, 6-(2-amino-5-(4-(4-(cyclopropylmethyl)piper-azin-1-yl)phenyl)-6-fluoropyridin-3-yl)-8-fluoroisoquinolin-1(2H)-one]
23 | 0.1 to 10 | > 1000 | CC(=O)N1CC(Oc2ccc(-c3cc(-c4ccc5c(c4)CCNC5=O)c(N)nc3F)cc2)C1 [I-326, 6-(5-(4-((1-acetylazetidin-3-yl)oxy)phenyl)-2-amino-6-fluoropyridin-3-yl)-3,4-dihydroisoquinolin-1(2H)-one]
24 | 0.1 to 10 | > 1000 | Nc1nc(F)c(-c2ccc(N3CCS(=O)(=O)CC3)cc2)cc1-c1cc2c(cc1F)C(=O)NCC2 [I-346, 6-(2-amino-5-(4-(1,1-dioxidothiomorpholino)phenyl)-6-fluoropyridin-3-yl)-7-fluoro-3,4-dihydroisoquinolin-1(2H)-one]
25 | 11 to 100 | > 1000 | CNCC1Cc2cc(-c3cc(-c4ccc(Cl)cc4)c(F)nc3N)ccc2C(=O)N1 (stereo not drawn) [I-298, 6-(2-amino-5-(4-chlorophenyl)-6-fluoropyridin-3-yl)-3-((methylamino)methyl)-3,4-dihydroisoquinolin-1(2H)-one]
26 | 0.1 to 10 | > 1000 | Nc1nc(F)c(-c2ccc(N3CCCN4CCCC4C3)cc2)cc1-c1ccc2c(c1)CCNC2=O (stereo not drawn) [I-281, 6-(2-amino-6-fluoro-5-(4-(hexahydro-1H-pyrrolo[1,2-a][1,4]diazepin-2(3H)-yl)phenyl)pyridin-3-yl)-3,4-dihydroisoquinolin-1(2H)-one]
27 | 0.1 to 10 | > 1000 | Nc1nc(F)c(-c2ccc(N3CCN(CCC4CC4)CC3)cc2)cc1-c1ccc2c(=O)[nH]ccc2c1 [I-389, 6-(2-amino-5-(4-(4-(2-cyclopropylethyl)piperazin-1-yl)phenyl)-6-fluoropyridin-3-yl)isoquinolin-1(2H)-one]
